Drawing on patent US7189720B2 (H. Lundbeck A/S, priority 1999, dated 2007), this text covers Ki for 19 molecules.

Where two headings read alike, the source gives them in different places.

For one test, the target named is T1, human Y5 receptor (Homo sapiens, UniProt Q15761).
T1 construct: expressed in transfected cells; host or cells: mouse fibroblast LM(tk-) cells, e.g. L-hY5-7 (ATCC CRL-11995)
T1 sequence (Q15761 1-445): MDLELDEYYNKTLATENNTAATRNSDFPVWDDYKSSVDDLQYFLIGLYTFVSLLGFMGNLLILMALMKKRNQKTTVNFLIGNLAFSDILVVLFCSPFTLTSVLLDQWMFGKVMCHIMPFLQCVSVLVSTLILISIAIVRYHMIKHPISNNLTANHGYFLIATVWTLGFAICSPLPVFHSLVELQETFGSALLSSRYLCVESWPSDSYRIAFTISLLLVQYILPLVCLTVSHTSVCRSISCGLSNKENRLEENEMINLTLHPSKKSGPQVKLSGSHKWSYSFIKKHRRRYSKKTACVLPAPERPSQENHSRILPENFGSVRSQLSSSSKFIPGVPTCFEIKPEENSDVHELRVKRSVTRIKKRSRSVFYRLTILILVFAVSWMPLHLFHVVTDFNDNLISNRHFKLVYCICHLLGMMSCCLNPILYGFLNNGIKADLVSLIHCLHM
Nature of the test: Radioligand binding to membranes, cloned human Y5 receptor.

Another test addresses T2, human Y1 receptor (Homo sapiens, UniProt P25929).
T2 construct: expressed in transfected cells; host or cells: human embryonic kidney 293 cells, e.g. 293-hY1-5 (ATCC CRL-12121)
T2 sequence (P25929 1-384): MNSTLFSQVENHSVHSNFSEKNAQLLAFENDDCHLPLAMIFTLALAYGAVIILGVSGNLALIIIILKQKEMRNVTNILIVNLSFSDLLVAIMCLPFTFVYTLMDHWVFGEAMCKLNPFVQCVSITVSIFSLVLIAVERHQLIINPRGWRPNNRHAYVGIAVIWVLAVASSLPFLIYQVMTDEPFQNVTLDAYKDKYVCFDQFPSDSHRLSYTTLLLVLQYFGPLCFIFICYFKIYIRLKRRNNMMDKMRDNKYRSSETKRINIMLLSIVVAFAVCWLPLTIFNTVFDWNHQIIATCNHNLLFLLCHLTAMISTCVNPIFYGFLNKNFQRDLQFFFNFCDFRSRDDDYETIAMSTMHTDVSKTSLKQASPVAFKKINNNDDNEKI
Kind of test: Radioligand binding to membranes, cloned human Y1 receptor. To be noted: hNPY-1 (one cell for Y1, Y2, Y4), read-out: Ki, nM hNPY-1,2,4.

Another test deals with T3, human Y4 receptor (Homo sapiens, UniProt P50391).
T3 construct: expressed in transfected cells; host or cells: mouse fibroblast LM(tk-) cells, e.g. L-hY4-3 (ATCC CRL-11779)
Kind of test: Radioligand binding to membranes, cloned human Y4 receptor. The following applies: hNPY-4 (one cell for Y1, Y2, Y4), read-out: Ki, nM hNPY-1,2,4.

The next test deals with T4, human Y2 receptor (Homo sapiens, UniProt P49146).
T4 sequence (P49146 1-381): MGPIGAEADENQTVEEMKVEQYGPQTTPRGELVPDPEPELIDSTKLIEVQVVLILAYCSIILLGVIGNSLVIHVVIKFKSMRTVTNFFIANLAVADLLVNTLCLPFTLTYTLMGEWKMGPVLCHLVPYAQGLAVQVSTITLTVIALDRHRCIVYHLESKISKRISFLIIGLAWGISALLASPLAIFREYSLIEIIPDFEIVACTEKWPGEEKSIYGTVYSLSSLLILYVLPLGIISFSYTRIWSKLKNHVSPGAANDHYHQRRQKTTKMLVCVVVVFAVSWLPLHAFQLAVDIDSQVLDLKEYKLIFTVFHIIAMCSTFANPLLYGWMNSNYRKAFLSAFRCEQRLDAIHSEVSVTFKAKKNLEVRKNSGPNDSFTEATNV
Kind of test: Radioligand binding to membranes, cloned human Y2 receptor.

The mark [1] stands for this setting: Table 6, read-out: Ki, nM hNPY-5.
Setting [2] is: Table 5, read-out: Ki, nM hNPY-5.

T3 sequence (P50391 whole entry): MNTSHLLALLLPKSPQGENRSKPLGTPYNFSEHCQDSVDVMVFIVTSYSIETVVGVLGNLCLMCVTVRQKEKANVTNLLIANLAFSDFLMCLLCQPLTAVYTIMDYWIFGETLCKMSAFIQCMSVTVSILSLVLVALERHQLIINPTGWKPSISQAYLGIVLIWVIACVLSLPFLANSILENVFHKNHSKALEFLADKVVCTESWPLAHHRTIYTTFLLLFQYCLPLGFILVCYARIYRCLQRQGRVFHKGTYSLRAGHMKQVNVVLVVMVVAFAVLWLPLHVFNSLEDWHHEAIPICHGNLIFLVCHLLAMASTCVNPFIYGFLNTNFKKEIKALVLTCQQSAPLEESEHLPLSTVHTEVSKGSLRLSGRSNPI
Description for human Y1 receptor: (§1) Binding of the compounds of the present invention to human Y1, Y2, Y4, and Y5 receptors was evaluated using stably transfected 293 or LM(tk-) cells as described above.
(§2) Membranes were harvested from COS-7 cells 48 hours after transient transfection. Adherent cells were washed twice in ice-cold phosphate buffered saline (138 mM NaCl, 8.1 mM Na2HPO4, 2.5 mM KCl, 1.2 mM KH2PO4, 0.9 mM CaCl2, 0.5 mM MgCl2, pH 7.4) and lysed by sonication in ice-cold sonication buffer (20 mM Tris-HCl, 5 mM EDTA, pH 7.7). Large particles and debris were cleared by low speed centrifugation (200×g, 5 min, 4° C.). Membranes were collected from the supernatant fraction by centrifugation (32,000×g, 18 min, 4° C.), washed with ice-cold hypotonic buffer, and collected again by centrifugation (32,000×g, 18 min, 4° C.). The final membrane pellet was resuspended by sonication into a small volume of ice-cold binding buffer (˜1 ml for every 5 plates: 10 mM NaCl, 20 mM HEPES, 0.22 mM KH2PO4, 1.26 mM CaCl2, 0.81 mM MgSO4, pH 7.4). Protein concentration was measured by the Bradford method (Bradford, 1976) using Bio-Rad Reagent, with bovine serum albumin as a standard. Membranes were held on ice for up to one hour and used fresh, or flash-frozen and stored in liquid nitrogen.
(§3) Membranes were prepared similarly from 293, LM(tk-), and NIH-3T3 cells.
(§4) Membrane suspensions were diluted in binding buffer supplemented with 0.1% bovine serum albumin to yield an optimal membrane protein concentration so that ^125I-PYY (or alternative radioligand such as ^125I-NPY, ^125I-NYY3-36, or ^125I-[Leu^31Pro^34]PYY) bound by membranes in the assay was less than 10% of ^125I-PYY (or alternative radioligand) delivered to the sample (100,000 dpm/sample=0.08 nM for competition binding assays). ^125I-PYY (or alternative radioligand) and peptide competitors were also diluted to desired concentrations in supplemented binding buffer. Individual samples were then prepared in 96-well polypropylene microtiter plates by mixing ^125I-PYY (25 μL) (or alternative radioligand), competing peptides or supplemented binding buffer (25 μL), and finally, membrane suspensions (200 μL). Samples were incubated in a 30° C. water bath with constant shaking for 120 min. Incubations were terminated by filtration over Whatman GF/C filters (pre-coated with 1% polyethyleneimine and air-dried before use), followed by washing with 5 mL of ice-cold binding buffer. Filter-trapped membranes were impregnated with MeltiLex solid scintillant (Wallac, Turku, Finland) and counted for ^125I in a Wallac Beta-Plate Reader. Alternatively, incubations were carried out in GF/C filter plates (pre-coated with 1% polyethyleneimine and air-dried before use), followed by vacuum filtration and three washes of 300 μL of ice-cold binding buffer. 50 μL of UltimaGold (Packard) scintillant were added and counted for ^125I, in a Wallac MicroBeta Trilux. Non-specific binding was defined by 300 nM human NPY for all receptors except the Y4 subtypes; 100 nM human PP was used for the human Y4 and 100 nM rat PP for the rat Y4.
Description for human Y2 receptor: as §1, §2, §3, §4
Description for human Y4 receptor: as §1, §2, §3, §4
Description for human Y5 receptor: as §1, §2, §3, §4

For `CCS(=O)(=O)NC[C@H]1CC[C@H](Nc2nc3c(s2)CCSc2ccccc2-3)CC1` [Example 107, N1-{[4-(4,5-Dihydrobenzo[2,3]thiepino[4,5-d][1,3]thiazol-2-ylamino)cyclohexyl]methyl}-1-ethanesulfonamide], the Ki on human Y5 receptor (setting [1]) was 5.1 nM; on human Y1 receptor (Table 6), more than 10000 nM; at human Y4 receptor (Table 6) it was more than 10000 nM; at human Y2 receptor it was more than 10 µM.
As for `COc1ccc(C)cc1S(=O)(=O)NCCCCCNc1nc(-c2cccnc2)cs1` [Example 72, 2-(5-(2-Methoxy-5-methyl)phenylsulfonylamino)pentylamino-4-(3-pyridyl)thiazole hydrogen chloride], the Ki is 50 nM on human Y5 receptor (setting [2]), more than 10000 nM on human Y1 receptor (Table 5), more than 10000 nM on human Y4 receptor (Table 5) and more than 10 µM on human Y2 receptor.
As to `CCN(CC)S(=O)(=O)NCCCCCNc1nc(-c2ccccn2)cs1` [Example 59, 2-(5-Diethylaminosulfonylamino)pentylamino-4-(2-pyridyl)-thiazole hydrogen chloride], the Ki at human Y1 receptor (Table 5) is more than 10000 nM; at human Y4 receptor (Table 5), more than 10000 nM; on human Y2 receptor, more than 10 µM.
In the case of `O=S(=O)(NCCCCCCNc1nc2c(s1)CCSc1ccccc1-2)c1cccs1` [Example 106], the Ki at human Y5 receptor (setting [1]) was 2.9 nM; at human Y1 receptor (Table 6), more than 10000 nM; at human Y4 receptor (Table 6) it was more than 10000 nM; on human Y2 receptor, more than 10 µM.
As for `COc1ccc(C)cc1S(=O)(=O)NCCCCCNc1nc(-c2ccsc2)cs1` [Example 79, N1-(5-{[4-(3-Thienyl)-1,3-thiazol-2-yl]amino}pentyl)-2-methoxy-5-methyl-1-benzenesulfonamide], the Ki at human Y5 receptor (setting [2]) is 545 nM; at human Y1 receptor (Table 5), more than 10000 nM; at human Y4 receptor (Table 5) it was more than 10000 nM; at human Y2 receptor, more than 10 µM.
In the case of `O=S(=O)(NC[C@H]1CC[C@H](Nc2nc3c(s2)CCSc2ccccc2-3)CC1)c1cccc2nsnc12` [Example 118, N4-{[4-(4,5-Dihydrobenzo[2,3]thiepino[4,5-d][1,3]thiazol-2-ylamino)cyclohexyl]methyl}-2,1,3-benzothiadiazole-4-sulfonamide], the Ki was 2.4 nM at human Y5 receptor (setting [1]), more than 10000 nM on human Y1 receptor (Table 6), more than 10000 nM at human Y4 receptor (Table 6) and more than 10 µM at human Y2 receptor.
For `O=S(=O)(NCCCCCNc1nc2c(s1)CCSc1ccc(F)cc1-2)c1ccccc1F` [Example 161, N1-{5-[(9-Fluoro-4,5-dihydrobenzo[2,3]thiepino[4,5-d][1,3]thiazol-2-yl)amino]pentyl}-2-fluoro-1-benzenesulfonamide], the inhibitory constant (Ki) was 4.9 nM on human Y5 receptor (setting [1]), more than 10000 nM on human Y1 receptor (Table 6), more than 10000 nM at human Y4 receptor (Table 6) and more than 10 µM at human Y2 receptor.
Turning to `O=S(=O)(NCCCCCNc1nc(-c2ccncc2)cs1)c1ccccc1F` [Example 73, 2-(5-(2-Fluoro)phenylsulfonylamino)pentylamino-4-(4-pyridyl)thiazole hydrogen chloride], the Ki was 204 nM on human Y5 receptor (setting [2]), more than 10000 nM at human Y1 receptor (Table 5), more than 10000 nM on human Y4 receptor (Table 5) and more than 10 µM at human Y2 receptor.
`O=S(=O)(NCCCCCNc1nc2c(s1)CCSc1ccc(F)cc1-2)c1cccs1` [Example 162, N2-{5-[(9-Fluoro-4,5-dihydrobenzo[2,3]thiepino[4,5-d][1,3]thiazol-2-yl)amino]pentyl}-2-thiophenesulfonamide]: the inhibitory constant (Ki) at human Y5 receptor (setting [1]) was 4.8 nM; on human Y1 receptor (Table 6), more than 10000 nM; on human Y4 receptor (Table 6) it was more than 10000 nM; on human Y2 receptor it was more than 10 µM.
Take `Cc1noc(C)c1S(=O)(=O)NCCCCCNc1nc(-c2ccncc2)cs1` [Example 74, 2-(5-(3,5-Dimethylisoxazol-4-yl)sulfonylamino)pentylamino-4-(4-pyridyl)thiazole hydrogen chloride]: the Ki on human Y5 receptor (setting [2]) was 745 nM; on human Y1 receptor (Table 5) it was more than 10000 nM; at human Y4 receptor (Table 5) it was more than 10000 nM; on human Y2 receptor it was more than 10 µM.
With `CCS(=O)(=O)NCCCCCNc1nc2c(s1)CCSc1ccccc1-2` [Example 109, N1-[5-(4,5-Dihydrobenzo[2,3]thiepino[4,5-d][1,3]thiazol-2-ylamino)pentyl]-1-ethanesulfonamide], the inhibition constant (Ki) at human Y5 receptor (setting [1]) was 3.7 nM; at human Y1 receptor (Table 6) it was more than 10000 nM; at human Y4 receptor (Table 6) it was more than 10000 nM; on human Y2 receptor it was more than 10 µM.
Regarding `O=S(=O)(NC[C@H]1CC[C@H](Nc2nc(-c3cc(-c4ccccc4)no3)cs2)CC1)c1cccc2cccnc12` [Example 81, trans-N8-[(4-{[4-(3-Phenyl-5-isoxazolyl)-1,3-thiazol-2-yl]amino}cyclohexyl)methyl]-8-quinolinesulfonamide], the Ki was 155 nM on human Y5 receptor (setting [2]), more than 10000 nM on human Y1 receptor (Table 5), more than 10000 nM at human Y4 receptor (Table 5) and more than 10 µM at human Y2 receptor.
Turning to `CN(C)S(=O)(=O)NCCCCCNc1nc(-c2ccsc2)cs1` [Example 82, N,N-Dimethyl-N′-(5-{[4-(3-Thienyl)-1,3-thiazol-2-yl]amino}pentyl)sulfamide], the Ki at human Y5 receptor (setting [2]) was 8.3 nM; on human Y1 receptor (Table 5), more than 10000 nM; on human Y4 receptor (Table 5), more than 10000 nM; at human Y2 receptor, more than 10 µM.
For the molecule `COc1ccc(C)cc1S(=O)(=O)NCCCCCNc1nc(-c2cc3ccccc3s2)cs1` [Example 76, N1-{5-[(4-Benzo[b]thiophen-2-yl-1,3-thiazol-2-yl)amino]-pentyl}-2-methoxy-5-methyl-1-benzenesulfonamide], the inhibitory constant (Ki) on human Y5 receptor (setting [2]) is 11 nM; at human Y1 receptor (Table 5), more than 10000 nM; at human Y4 receptor (Table 5), more than 10000 nM; on human Y2 receptor, more than 10 µM.
Regarding `O=S(=O)(NCCCCCNc1nc(-c2cccnc2)cs1)c1ccccc1F` [Example 70, 2-(5-(2-Fluorophenyl)sulfonylamino)pentylamino-4-(3-pyridyl)thiazole hydrogen chloride], the inhibition constant (Ki) is 21 nM at human Y5 receptor (setting [2]), more than 10000 nM on human Y1 receptor (Table 5), more than 10000 nM at human Y4 receptor (Table 5) and more than 10 µM at human Y2 receptor.
As to `COc1ccc(C)cc1S(=O)(=O)NCCCCCNc1nc(-c2ccncc2)cs1` [Example 75, 2-(5-(2-Methoxy-5-methyl)phenylsulfonylamino)pentylamino-4-(4-pyridyl)thiazole hydrogen chloride], the inhibitory constant (Ki) at human Y5 receptor (setting [2]) was 5 nM; on human Y1 receptor (Table 5), more than 10000 nM; at human Y4 receptor (Table 5), more than 10000 nM; at human Y2 receptor, more than 10 µM.
In the case of `O=S(=O)(NCCCCCNc1nc2c(s1)CCSc1ccccc1-2)c1cccs1` [Example 110, N2-[5-(4,5-Dihydrobenzo[2,3]thiepino[4,5-d][1,3]thiazol-2-ylamino)pentyl]-2-thiophenesulfonamide], the Ki on human Y5 receptor (setting [1]) is 2.6 nM; on human Y1 receptor (Table 6), more than 10000 nM; on human Y4 receptor (Table 6), more than 10000 nM; on human Y2 receptor, more than 10 µM.
`COc1ccc(C)cc1S(=O)(=O)NCCCCCNc1nc(-c2sc3ccc(Cl)cc3c2C)cs1` [Example 77, N1-(5-{[4-(5-Chloro-3-methylbenzo[b]thiophen-2-yl)-1,3-thiazol-2-yl]amino}pentyl)-2-methoxy-5-methyl-1-benzenesulfonamide]: the Ki on human Y5 receptor (setting [2]) is 297 nM; at human Y1 receptor (Table 5) it was more than 10000 nM; at human Y4 receptor (Table 5), more than 10000 nM; at human Y2 receptor it was more than 10 µM.
As for `CC(C)Nc1nc(NCCO)nc(NCC2CCC(CNS(=O)(=O)c3cccc4ccccc34)CC2)n1` (stereo not drawn) [Example 11, N1-[4-([4-[(2-hydroxyethyl)amino]-6-(isopropylamino)-1,3,5-triazin-2-yl]aminomethyl)cyclohexyl]methyl-1-naphthalenesulfonamide], the Ki at human Y5 receptor (Table 1, read-out: Ki (nM) hNPY-5) was 35 nM.

As usually defined, the Ki is a measure of affinity in units of concentration, obtained from inhibition or displacement.
